According to patent publication US20060167006A1, “Method of treatment” (priority 2003, published 2006):

What was measured:
Format in all cases: cell-based, human
Mia-PaCa-2 cells = test: Growth factor-induced proliferation (MTT), Mia-PaCa-2; settings: for Maximal effect of growth factor on cell growth: Mia-PaCa-2, growth factor alone (absence of Compound I), 72 hours, MTT
Method: (§1) Cell culture and MTT assay: Human pancreatic cancer cell lines are routinely grown in DMEM (Colo-357 and Mia-PaCa-2) or RPMI (Aspc-1, BxPc-3, Capan-1, and T3M4) supplemented with 10% FBS, 100 U/ml penicillin, and 100 μg/ml streptomycin (complete medium). To assess cell proliferation, the MTT test is employed. […] After 48 or 72 hours of incubation, 3-(4,5-methylthiazol-2-yl)-2,5-diphenyl-tetrazolium bromide (MTT) is added (50 μg/well) for 4 hours. Formazan products are solubilized with acidic isopropanol, and the optical density is measured at 570 nm. […] All experiments are performed in triplicate.
(§2) EGF-induced proliferation of both Mia-PaCa-2 and T3M4 cell lines in a dose-dependent manner is seen with maximal effects of +72% ±7.5% (Mia-PaCa-2) and +52% ±23% (T3M4). […] FGF-2 markedly stimulates cell growth in Mia-PaCa-2 cell lines with maximal effects of +79% ±6%, and only slightly stimulated T3M4 cell lines, with maximal effects of +7% ±4%. […] Both cell lines are less sensitive to IGF-1 stimulation compared with EGF and FGF-2, with maximal effects of +24% ±2% in Mia-PaCa-2 and +17% ±4% in. T3M4.

T3M4 cells = test: Growth factor-induced proliferation (MTT), T3M4; settings: for Maximal effect of growth factor on cell growth: T3M4, growth factor alone (absence of Compound I), 72 hours, MTT
Method: as §1, §2

MAPK = test: Western blot of MAPK phosphorylation in growth factor-conditioned cells; settings: Mia-PaCa-2 and T3M4 cells, data not shown
Method: Western blot analysis: Cell culture monolayers are washed twice with ice-cold PBS and lysed with buffer containing Tris-HCl (50 mM, pH 7.4), NP-40 (1%), Na-deoxycholate (0.25%), NaCl (150 mM), EDTA (1 mM), PMSF (1 mM), Na3VO4 (1 mM), NaF (1 mM) and one tablet of complete mini-EDTA-free protease inhibitor cocktail (in 10 ml buffer). Protein concentration is determined by the BCA protein assay (Pierce Chemical Co., Rockford, Ill., USA). 30 μg of cell lysates are separated on SDS-polyacrylamide gels and electroblotted onto nitrocellulose membranes. Membranes are then incubated in blocking solution (5% nonfat-milk in 20 mM Tris-HCl, 150 mM NaCl, 0.1% Tween-20) (TBS-T), followed by incubation with the indicated antibodies at 4° C. overnight. The membranes are then washed in TBS-T and incubated with HRPO-conjugated secondary antibodies for 1 hour at room temperature. Antibody detection is performed with an enhanced chemiluminescence reaction. Statistical analysis: Results are expressed as mean±SEM. For statistical analysis, the Student's t-test is used. Significance is defined as p<0.05.

[1] = test system: BxPc-3, Colo-357 and Capan-1; test: PDGF effect on cell growth, three additional cell lines; settings: BxPc-3, Colo-357 and Capan-1, growth factor alone
Method: as §1, §2

| Substance | Maximal effect of growth factor on cell growth (Mia-PaCa-2 cells) | Maximal effect of growth factor on cell growth (T3M4 cells) | Induction of cell proliferation by growth factor (Mia-PaCa-2 cells; Mia-PaCa-2, growth factor alone) | Induction of cell proliferation by growth factor (T3M4 cells; T3M4, growth factor alone) | Induction of PDGF and MAPK kinase phosphorylation (MAPK) | Effect of growth factor on cell growth [1] |
| --- | --- | --- | --- | --- | --- | --- |
| EGF: epidermal growth factor, EGF from Upstate Biotechnology | +72% ±7.5 | +52% ±23 |  |  |  |  |
| IGF-1: human recombinant IGF-1 from R&D Systems | +24% ±2 | +17% ±4 |  |  |  |  |
| FGF-2: human recombinant FGF-2 from R&D Systems | +79% ±6 | +7% ±4 |  |  |  |  |
| PDGF |  |  | does not induce cell proliferation | does not induce cell proliferation | does not induce PDGF and MAPK kinase phosphorylation | no effect on cell growth |
